Data on two compounds can be found in PMC10097024, “Cytotoxic and Antibacterial Prenylated Acylphloroglucinols from Hypericum olympicum L” (Plants, 2023).

The structures appear in SMILES notation.

One experiment concerns procaspase 9. Nature of the experiment: Western blot, procaspase 9. The format is cell-based, human. Particulars: MDA-MB-231 and HL60/DOX. The procedure: Next, the samples were lysed on ice with a buffer containing 100 mM Tris–HCl at pH 8.0, 4% SDS, 20% glycerol, 1% Na3VO4, 200 mM dithiothreitol (DTT) (Sigma-Aldrich, St. Louis, MO, USA) and protease inhibitor (Roche, Basel, Switzerland). Then the cell lysate was boiled for 15 min and centrifuged at 13,000 rpm for 10 min at 4 °C. Before DTT addition, aliquot samples of 10 μL were taken from the lysates. Their protein concentrations were determined using a BCA protein assay kit (ThermoFisher Scientific, Waltham, MA, USA) after dilution 5× with H2O. Subsequently, the samples were subjected to denaturing SDS-PAGE electrophoresis and then transferred to PVDF membrane (Santa Cruz Biotechnology, USA). After this, the blots were fixed with blocking solution (5% w/v nonfat dried milk powder, dissolved in TBS) and incubated with specific primary antibodies: mouse procaspase-9 (sc-17784), mouse Bcl-2 (C-2, sc-7382) and mouse β-actin (sc-8432). The incubation was either overnight at 4 °C or for 150 min at room temperature. After washing, the membranes were incubated for 45 min with horseradish peroxidase conjugated secondary goat anti-mouse antibody (sc-2005) or mouse IgG kappa antibody (sc-516102) (Santa Cruz Biotechnology, Santa Cruz, CA, USA). […] This densitometry analysis of the blots was calculated by Quantity One software version 4.6.9 (Bio-Rad Laboratories, Hercules, CA, USA). […]
(In general: A western blot detects proteins with antibodies after separation by electrophoresis.)

Another experiment deals with K-562 cells. The note with it: human leukemia cell line K-562, dissolved in DMSO; cited from earlier work.
Another experiment relates to BV-173. Also on record: method as in PMID 26411018. Particulars: human leukemia cell line BV-173, dissolved in DMSO; cited from earlier work.

Turning to `CC(C)=CCC[C@]1(C)[C@@H](CC=C(C)C)C[C@H]2C(=O)[C@]1(C(=O)C(C)C)C(=O)C(CC=C(C)C)=C2O` [Compound 5, (1S,5R,7S,8R)-4-hydroxy-1-isobutyryl-8-methyl-3,7-bis(3-methylbut-2-en-1-yl)-8-(4-methylpent-3-en-1-yl)bicyclo[3.3.1]non-3-ene-2,9-dione], in the experiment on procaspase 9, the “degradation of the precursor caspase 9 (in words)” value is listed as “not any observed decrease”.

With `CC(C)=CCC[C@]1(C)[C@@H](CC=C(C)C)C[C@]2(C)C(=O)C(CC=C(C)C)=C(O)[C@@]1(C(=O)C(C)C)C2=O` [Compound 3, hyperpolyphyllirin/hyperibine J], the IC50 in the experiment on K-562 cells was 21.3 µM; in the experiment on BV-173, 5.7 µM.

The term IC50 denotes the concentration that gives 50% inhibition.
